Legend:
[1] = system: YAP-TEAD; assay: Luciferase assay of YAP-TEAD binding inhibition (TEAD luciferase reporter 8XGTIIC in HEK293T cells); type: cell-based; conditions: 10 μM, 24 hours, luciferase normalized with β-galactosidase
Method: A Luciferase assay which allows an inhibition degree of YAP-TEAD, previously reported in Cancers 2018, 10(5), 140, was used to measure an in vitro binding inhibition rate of YAP-TEAD.
HEK293T cells were purchased from American Type Culture Collection and incubated in DMEM media containing 10% FBS, L-glutamine, and penicillin/streptomycin. The HEK293T cells were seeded in a 24 well plate at a density of 1×10^5, and coated with polyethyleneamine (10 μg/mL). These cells were transfected with 8XGTIIC-luciferase (Addgene reference 34615) which is TEAD luciferase reporter plasmid and control β-galactosidase plasmid CMV-β-Gal using a lipofectamine 2000 reagent (Life Technologies, Inc.) according to the manufacturer's manual. Thereafter, the compound of the present invention was treated at a concentration of 10 μM for 24 hours, the cells were lysed using a Reporter lysis buffer (Promega, France), luciferase activity was read with a Mithras LB940 plate reader, and then normalization was performed with β-galactosidase.

[2] = system: AOM/DSS-induced colorectal cancer; assay: Anticancer activity in AOM/DSS orthotopic syngeneic mouse model; type: in vivo, B6 mouse; conditions: intraperitoneally for three weeks; intestinal tissue FACS; FIG. 3
Method: In order to measure an anticancer effect in the state of immunity existing in a large intestine, a conventionally known AOM/DSS model was used to measure anticancer activity (J. Vis. Exp. (67), e4100 10.3791/4100, Cell Death & Dis. 2018, 9, 153).
A B6 mouse was adapted to an animal room for one week and then azoxymethane (AOM) was injected intraperitoneally at 10 mg/kg. After one week, the B6 mouse was supplied with a 2.5% dextran sulfate sodium (DSS) solution for one week and alternatively supplied with fresh water for two weeks, which was repeated three time, thereby causing colorectal cancer. After colorectal cancer was caused, the YAP-TEAD inhibition compound 17 of the present invention was injected intraperitoneally at 50 mg/kg, five times a week, for three weeks. After the dosing period was over, an intestine tissue was surgically isolated and the number and size of cancer tissue in the intestine tissue were measured and quantitatively analyzed, and the results are illustrated in FIGS. 1 to 3.
In addition, in order to confirm a ratio of Treg cells which play an important role in immunosuppression in cancer tissues, FACS analysis was performed. […]

[3] = system: HT29 cells; assay: Proliferation assay for HT29 colorectal cancer cells (CellTiter-Glo cell viability); type: cell-based; conditions: Homo sapiens, HT-29; HT29 colorectal cancer cell line, 72 hours, ATP detection
Method: HT-29 which is a commercially available colorectal cancer cell line was treated with trypsin-EDTA, incubated, and seeded in a 96 well plate. […] The treated cells were incubated for further 72 hours and cell viability was measured by an ATP detection method (CellTiter-Glo LuminescentCell Viability Assay, Promega).
In order to confirm the anticancer effect of the compounds according to the present invention, a proliferation assay for HT29 cells which are a colorectal cancer cell line was performed by the above method, and IC50 values as a result are listed in the following Table 4: […]

| Structure (SMILES) | Inhibition(%) [1] [%] | Treg cells in cancer tissue (FACS, CD4 and Fop3) [2] | IC50 [3] [µM] |
| --- | --- | --- | --- |
| COCCCN1C(=O)c2cccc3c(NC(=O)C4CCCCN4S(=O)(=O)c4cccs4)ccc1c23 (centres unmarked) [Compound 17] | 78 | Treg cell decrease was confirmed | 6.91 |
| COCCCN1C(=O)c2cccc3c(NC(=O)C4CCCCN4S(=O)(=O)c4ccc(Br)s4)ccc1c23 (centres unmarked) [Compound 60] | 67 | – | 12.5 |
| COCCCN1C(=O)c2cccc3c(NC(=O)C4CCCCN4S(=O)(=O)c4cc(Br)c(Br)s4)ccc1c23 (centres unmarked) [Compound 80] | 77 | – | 5.6 |
| COCCCN1C(=O)c2cccc3c(NC(=O)C4CCCCN4S(=O)(=O)c4ccc(OC)c(OC)c4)ccc1c23 (centres unmarked) [Compound 42] | 68 | – | 44.5 |
| COCCCN1C(=O)c2cccc3c(NC(=O)C4CCCCN4S(=O)(=O)c4ccc5c(c4)OCCO5)ccc1c23 (centres unmarked) [Compound 83] | 92 | – | 19.4 |
| COCCCN1C(=O)c2cccc3c(NC(=O)C4CCCN(S(=O)(=O)c5scnc5C)C4)ccc1c23 (centres unmarked) [Compound 64] | 76 | – | 24.7 |
| N#CCCN1C(=O)c2cccc3c(NC(=O)C4CCCCN4S(=O)(=O)c4cccs4)ccc1c23 (centres unmarked) [Compound 21] | 59 | – | 34.2 |
| COc1ccc(CCN2C(=O)c3cccc4c(NC(=O)C5CCCCN5S(=O)(=O)c5cccs5)ccc2c34)cc1 (centres unmarked) [Compound 15] | 81 | – | 2.99 |
| COCCCN1C(=O)c2cccc3c(NC(=O)C4CCCN(S(=O)(=O)c5c(Cl)nc6sccn56)C4)ccc1c23 (centres unmarked) [Compound 68] | 81 | – | 10.9 |
| N#CCCCN1C(=O)c2cccc3c(NC(=O)C4CCCCN4S(=O)(=O)c4cccs4)ccc1c23 (centres unmarked) [Compound 20] | 65 | – | 32.3 |
| CN(CCCN1C(=O)c2cccc3c(NC(=O)C4CCCCN4S(=O)(=O)c4cccs4)ccc1c23)S(C)(=O)=O (centres unmarked) [Compound 117] | 85 | – | 12 |
| O=C(Nc1ccc2c3c(cccc13)C(=O)N2CCc1ccc([N+](=O)[O-])cc1)C1CCCCN1S(=O)(=O)c1cccs1 (centres unmarked) [Compound 16] | 77 | – | 4.24 |
| COCCCN1C(=O)c2cccc3c(NC(=O)C4CCCCN4S(=O)(=O)c4cc5c(s4)CCCC5)ccc1c23 (centres unmarked) [Compound 84] | 83 | – | 8.2 |
| COCCCN1C(=O)c2cccc3c(NC(=O)C4CCCCN4S(=O)(=O)c4c(Cl)nc5sccn45)ccc1c23 (centres unmarked) [Compound 78] | 53 | – | 30.1 |
| COCCCN1C(=O)c2cccc3c(NC(=O)C4CCCN(S(=O)(=O)c5ccc(Br)s5)C4)ccc1c23 (centres unmarked) [Compound 59] | 87 | – | 7.6 |
| COCCCN1C(=O)c2cccc3c(NC(=O)C4CCCN(S(=O)(=O)c5cccc6nsnc56)C4)ccc1c23 (centres unmarked) [Compound 69] | 94 | – | 16.8 |
| COCCCN1C(=O)c2cccc3c(NC(=O)C4CCCN(S(=O)(=O)c5cccc6cccnc56)C4)ccc1c23 (centres unmarked) [Compound 75] | 93 | – | 16.8 |
| COC(C)(C)CCN1C(=O)c2cccc3c(NC(=O)C4CCCCN4S(=O)(=O)c4cccs4)ccc1c23 (centres unmarked) [Compound 58] | 65 | – | 10.2 |
| COCCCN1C(=O)c2cccc3c(NC(=O)C4CCCCN4S(=O)(=O)c4c(Cl)sc(Cl)c4Br)ccc1c23 (centres unmarked) [Compound 66] | 59 | – | 8.7 |
| COCCCN1C(=O)c2cccc3c(NC(=O)C4CCCN(S(=O)(=O)c5ccc(OCCOC)c(C)c5)C4)ccc1c23 (centres unmarked) [Compound 122] | 68 | – | 6.5 |

Source: US20220017491A1, “COMPOUND INHIBITING YAP-TEAD BINDING, AND PHARMACEUTICAL COMPOSITION FOR PREVENTING OR TREATING CANCER, COMPRISING COMPOUND AS ACTIVE INGREDIENT” (KOREA RESEARCH INSTITUTE OF CHEMICAL TECHNOLOGY, priority 2018, published 2022)
